From patent US11666558B2, “Methods of treating intraocular pressure with activators of Tie-2” (EyePoint Pharmaceuticals, Inc., priority 2015, dated 2023)
Where two headings read alike, the source gives them in different places.

Test: Ocular tissue concentrations (aqueous humor, vitreous humor, iris, retina, choroid, cornea) after topical ocular, subcutaneous and intravitreal administration
Type: in vivo, New Zealand White rabbits
Settings: New Zealand White, rabbit; for concentration at 6 h / concentration at 24 h / concentration at 48 h / concentration at 72 h: other: intravitreal, 2.5 mg/eye
Procedure: To measure the concentration of Compound 1 in plasma and ocular tissues following topical ocular, subcutaneous, and intravitreal administration, New Zealand White rabbits were administered Compound 1, and plasma and ocular samples were collected at pre-determined time points. Compound 1 formulations were prepared fresh on each day of dosing.
Ocular tissue samples from both eyes of each animal were collected and weights were recorded. Plasma and ocular tissue sample concentrations of Compound 1 were determined by LC-MS/MS.
New Zealand White rabbits weighing 2.5 to 3.5 kg were used on this study. Rabbits were housed one per cage. Animals were not fasted and only healthy animals with no ocular illness were used. Two rabbits per group were sacrificed at each of four ocular tissue sampling time points for a total of eight rabbits per group.
Animals were anesthetized for ocular (topical) and intravitreal dosing following the 12IA7 IACUC protocol. Each rabbit received a bolus dose of test formulation either via topical ocular administration 3 times daily on Days 1 and 2 (at 0, 6, and 12 hours), and once on Day 3 (at 0 hours) into both eyes; via intravitreal administration into both eyes once on Day 1 (at 0 hours); or via subcutaneous administration 2 times daily on Days 1 and 2 (at 0 and 8 hours) and once daily on Day 3 (at 0 hours). Doses were given within an approximately 1 hour window each day where applicable.
On Day 1, for intravitreal administration, or on Day 3, for topical ocular and subcutaneous administration, at the appropriate ocular tissue collection time points, animals were euthanized and both eyes were enucleated immediately. Following enucleation, each eye was rinsed with phosphate-buffered saline. Ocular tissue samples from both eyes of each animal were collected at predetermined time points and weights were recorded. All the samples were frozen immediately on dry ice, and stored at −60° C. to −80° C. pending bioanalysis.
An LC-MS/MS method was developed for the determination of Compound 1 in rabbit aqueous tissues (plasma, aqueous and vitreous humor) and solid ocular tissue samples. A pre-study standard curve was analyzed to determine the specificity, range, and lower limit of quantitation of the method. Plasma and tissue homogenate study samples were extracted and analyzed. All the samples were treated identically to the standards.
One eight-point standard curve was used in each analytical batch. To be accepted, each batch must have had at least five of eight standards with accuracy within ±20% of nominal, except at the lower limit of quantification (LLOQ), where ±25% was acceptable.
Concentration versus time data is plotted in FIGS. 3-16. All data are expressed as ng/g of the free drug. Samples that were below the limit of quantitation (0.2 ng/mL) were not used in the calculation of averages.

[1] = iris homogenate, Iris homogenate, OD, sodium salt, intravitreal 2.5 mg/eye, Group 4, read-out: Iris Conc. (ng/mL) OD
[2] = iris homogenate, Iris homogenate, OS, sodium salt, intravitreal 2.5 mg/eye, Group 4, read-out: Iris Conc. (ng/mL) OS
[3] = iris homogenate, Iris homogenate, left eye, intravitreal 2.5 mg/eye (group 5), individual animals, read-out: Conc. (ng/mL) OS
[4] = iris homogenate, Iris homogenate, right eye, intravitreal 2.5 mg/eye (group 5), individual animals, read-out: Conc. (ng/mL) OD
[5] = iris homogenate, subcutaneous, 5 mg/kg/dose, Iris homogenate, OD, sodium salt, subcutaneous 5 mg/kg/dose, Group 2, read-out: Iris Conc. (ng/mL) OD
[6] = iris homogenate, subcutaneous, 5 mg/kg/dose, Iris homogenate, OS, free acid, subcutaneous 5 mg/kg/dose, Group 3, read-out: Iris Conc. (ng/mL) OS
[7] = iris homogenate, subcutaneous, 5 mg/kg/dose, Iris homogenate, OS, sodium salt, subcutaneous 5 mg/kg/dose, Group 2, read-out: Iris Conc. (ng/mL) OS
[8] = iris homogenate, subcutaneous, 5 mg/kg/dose, TABLE 16: Iris homogenate, OS, free acid, subcutaneous 5 mg/kg/dose, Group 3, read-out: Iris Conc. (ng/mL) OS
[9] = iris, Iris, OD, sodium salt, intravitreal 2.5 mg/eye, Group 4, read-out: Iris Conc. (ng/g) OD
[10] = iris, Iris, OS, sodium salt, intravitreal 2.5 mg/eye, Group 4, read-out: Iris Conc. (ng/g) OS
[11] = iris, Iris, average, intravitreal 2.5 mg/eye (group 5), read-out: Avg.
[12] = iris, Iris, left eye, intravitreal 2.5 mg/eye (group 5), individual animals, read-out: Conc. (ng/g) OS
[13] = iris, Iris, right eye, intravitreal 2.5 mg/eye (group 5), individual animals, read-out: Conc. (ng/g) OD
[14] = iris, Iris, sodium salt, intravitreal 2.5 mg/eye, Group 4, read-out: Iris Avg.
[15] = iris, subcutaneous, 5 mg/kg/dose, Iris, OD, sodium salt, subcutaneous 5 mg/kg/dose, Group 2, read-out: Iris Conc. (ng/g) OD
[16] = iris, subcutaneous, 5 mg/kg/dose, Iris, OS, free acid, subcutaneous 5 mg/kg/dose, Group 3, read-out: Iris Conc. (ng/g) OS
[17] = iris, subcutaneous, 5 mg/kg/dose, Iris, free acid, subcutaneous 5 mg/kg/dose, Group 3, read-out: Iris Average
[18] = iris, subcutaneous, 5 mg/kg/dose, Iris, sodium salt, subcutaneous 5 mg/kg/dose, Group 2, read-out: Iris Average
[19] = iris, subcutaneous, 5 mg/kg/dose, Iris, OS, sodium salt, subcutaneous 5 mg/kg/dose, Group 2, read-out: Iris Conc. (ng/g) OS
[20] = iris, subcutaneous, 5 mg/kg/dose, TABLE 16: Iris, OS, free acid, subcutaneous 5 mg/kg/dose, Group 3, read-out: Iris Conc. (ng/g) OS
[21] = iris, subcutaneous, 5 mg/kg/dose, TABLE 16: Iris, free acid, subcutaneous 5 mg/kg/dose, Group 3, read-out: Iris Average

## COC(=O)N[C@@H](Cc1ccccc1)C(=O)N[C@@H](Cc1ccc(NS(=O)(=O)O)cc1)c1csc(-c2cccs2)n1 [Compound 1]
cornea, subcutaneous, 5 mg/kg/dose, TABLE 16: Cornea, OD, free acid, subcutaneous 5 mg/kg/dose, Group 3, read-out: Cornea Conc. (ng/g) OD
  concentration at 4 h: 10.4 ng/g
cornea, subcutaneous, 5 mg/kg/dose, TABLE 16: Cornea, free acid, subcutaneous 5 mg/kg/dose, Group 3, read-out: Cornea Average
  concentration at 4 h: 15.8 ng/g
[1]
  concentration at 6 h: 35500 ng/mL
  concentration at 24 h: 6890 ng/mL
  concentration at 48 h: 2380 ng/mL
  concentration at 72 h: 169 ng/mL
[2]
  concentration at 6 h: 34000 ng/mL
  concentration at 48 h: 1960 ng/mL
[3]
  concentration at 6 h: 13800 ng/mL
  concentration at 24 h: 14100 ng/mL
  concentration at 48 h: 1950 ng/mL
  concentration at 72 h: 1800 ng/mL
[4]
  concentration at 6 h: 18500 ng/mL
  concentration at 24 h: 7670 ng/mL
  concentration at 48 h: 1010 ng/mL
  concentration at 72 h: 279 ng/mL
[5]
  concentration at 0.5 h: 27.7 ng/mL
  concentration at 1 h: 11.4 ng/mL
  concentration at 4 hr: 2.12 ng/mL
[6]
  concentration at 0.5 h: 4.27 ng/mL
  concentration at 1 h: 4.33 ng/mL
  concentration at 4 h: 1.54 ng/mL
[7]
  concentration at 1 h: 8.87 ng/mL
  concentration at 4 hr: 3.1 ng/mL
Iris homogenate, subcutaneous, 5 mg/kg/dose, Iris homogenate, 2 hr, OD, free acid, subcutaneous 5 mg/kg/dose, Group 3, read-out: Iris Conc. (ng/mL) OD
  concentration at 2 h: 2.77 ng/mL
Iris homogenate, subcutaneous, 5 mg/kg/dose, Iris homogenate, 2 hr, OS, free acid, subcutaneous 5 mg/kg/dose, Group 3, read-out: Iris Conc. (ng/mL) OS
  concentration at 2 h: 2.68 ng/mL
Iris homogenate, subcutaneous, 5 mg/kg/dose, Iris homogenate, OD, free acid, subcutaneous 5 mg/kg/dose, Group 3, read-out: Iris Conc. (ng/mL) OD
  concentration at 4 h: 2.41 ng/mL
[8]
  concentration at 0.5 h: 4.27 ng/mL
  concentration at 1 h: 4.33 ng/mL
  concentration at 4 h: 1.54 ng/mL
Iris homogenate, subcutaneous, 5 mg/kg/dose, TABLE 16: Iris homogenate, 2 hr, OD, free acid, subcutaneous 5 mg/kg/dose, Group 3, read-out: Iris Conc. (ng/mL) OD
  concentration at 2 h: 2.77 ng/mL
Iris homogenate, subcutaneous, 5 mg/kg/dose, TABLE 16: Iris homogenate, 2 hr, OS, free acid, subcutaneous 5 mg/kg/dose, Group 3, read-out: Iris Conc. (ng/mL) OS
  concentration at 2 h: 2.68 ng/mL
Iris homogenate, subcutaneous, 5 mg/kg/dose, TABLE 16: Iris homogenate, OD, free acid, subcutaneous 5 mg/kg/dose, Group 3, read-out: Iris Conc. (ng/mL) OD
  concentration at 4 h: 2.41 ng/mL
[9]
  concentration at 6 h: 390000 ng/g
  concentration at 24 h: 75800 ng/g
  concentration at 48 h: 26200 ng/g
  concentration at 72 h: 1860 ng/g
[10]
  concentration at 6 h: 374000 ng/g
  concentration at 48 h: 21600 ng/g
[11]
  concentration at 6 h: 211000 ng/g
  concentration at 24 h: 113000 ng/g
  concentration at 48 h: 16800 ng/g
  concentration at 72 h: 10300 ng/g
[12]
  concentration at 6 h: 152000 ng/g
  concentration at 24 h: 155000 ng/g
  concentration at 48 h: 21400 ng/g
  concentration at 72 h: 19800 ng/g
[13]
  concentration at 6 h: 204000 ng/g
  concentration at 24 h: 84400 ng/g
  concentration at 48 h: 11100 ng/g
  concentration at 72 h: 3070 ng/g
[14]
  concentration at 6 h: 352000 ng/g
  concentration at 24 h: 141000 ng/g
  concentration at 48 h: 24600 ng/g
  concentration at 72 h: 1550 ng/g
[15]
  concentration at 0.5 h: 305 ng/g
  concentration at 1 h: 125 ng/g
  concentration at 4 hr: 33.8 ng/g
[16]
  concentration at 0.5 h: 47 ng/g
  concentration at 1 h: 47.6 ng/g
  concentration at 4 h: 16.9 ng/g
[17]
  concentration at 0.5 h: 50.3 ng/g
  concentration at 1 h: 58 ng/g
  concentration at 4 h: 17.5 ng/g
[18]
  concentration at 0.5 h: 459 ng/g
  concentration at 1 h: 94.7 ng/g
  concentration at 4 hr: 30.4 ng/g
[19]
  concentration at 1 h: 97.6 ng/g
  concentration at 4 hr: 34.1 ng/g
iris, subcutaneous, 5 mg/kg/dose, Iris, 2 hr, OD, free acid, subcutaneous 5 mg/kg/dose, Group 3, read-out: Iris Conc. (ng/g) OD
  concentration at 2 h: 30.5 ng/g
iris, subcutaneous, 5 mg/kg/dose, Iris, 2 hr, OS, free acid, subcutaneous 5 mg/kg/dose, Group 3, read-out: Iris Conc. (ng/g) OS
  concentration at 2 h: 29.5 ng/g
iris, subcutaneous, 5 mg/kg/dose, Iris, 2 hr, free acid, subcutaneous 5 mg/kg/dose, Group 3, read-out: Iris Average
  concentration at 2 h: 27.6 ng/g
iris, subcutaneous, 5 mg/kg/dose, Iris, 2 hr, sodium salt, subcutaneous 5 mg/kg/dose, Group 2, read-out: Iris Average
  concentration at 2 hr: 29.7 ng/g
iris, subcutaneous, 5 mg/kg/dose, Iris, OD, free acid, subcutaneous 5 mg/kg/dose, Group 3, read-out: Iris Conc. (ng/g) OD
  concentration at 4 h: 26.5 ng/g
[20]
  concentration at 0.5 h: 47 ng/g
  concentration at 1 h: 47.6 ng/g
[21]
  concentration at 0.5 h: 50.3 ng/g
  concentration at 1 h: 58 ng/g
